According to US20140288044A1, “COMPOSITIONS AND THERAPEUTIC USES OF IKK-RELATED KINASE EPSILON AND TANKBINDING KINASE 1 INHIBITORS” (Alzheimer's Institute of America, Inc., priority 2011, published 2014):
Where two headings read alike, the source gives them in different places.

Columns and labels:
[1] = system: IKKε-mediated phosphorylation of IRF3; test: ELISA for in-situ phosphorylation of IRF3 (phospho-Ser396) in HEK293T cells cotransfected with IRF3 and IKKε; format: cell-based; conditions: Homo sapiens, HEK-293T, 20 h, HEK293T cells, 20 hours, read-out: IC50, in-situ IKKε-mediated phosphorylation of IRF3
Protocol: HEK293T cells were cotransfected in a 10-cm dish with IRF3 and IKKε expression plasmids using Lipofectamine 2000 (Invitrogen, Carlsbad, Calif.). The following day, cells were replated at 20,000 per well in 96-well plates and treated with test compounds (compounds according to Formulae I and/or II) for 20 hours. Cell lysates were prepared and analyzed using an ELISA for phospho-Ser396 (anti-IRF3 capture antibody, Santa Cruz Biotechnology, Inc., Santa Cruz, Calif.; anti-p-Ser396 IRF3 detection antibody, Cell Signaling, Danvers, Mass.). pIRF3 levels in compound treated cells were normalized to DMSO treated cells (no compound). Cell viability was assayed in a parallel set of plates to monitor cytotoxic effects of the test compounds (CellTiter-Glo, Promega, Inc., Madison, Wis.). TBK1 activity was tested by Western blotting using a phospho-specific IRF7 antibody. Similar to above, HEK293T cells were transfected with IRF7 and TBK1 expression plasmids. Cells were seeded in 12-well plates at 150,000 per well and treated overnight with test compounds. Protein lysates were prepared and processed for Western blotting followed by detection using a phosphor-Ser477/Ser479 IRF7 antibody (BD Biosciences, San Jose, Calif.)

[2] = biological target: T1, IKKε (Homo sapiens, UniProt Q14164); test: In-vitro IKKε kinase assay (radiolabelled ATP, filterplate); format: biochemical
T1 construct: His-tag (in-house Sf9 preparation) or GST-tag (purchased Invitrogen preparation); these are alternatives, not both on one protein; host or cells: Sf9 cells
T1 sequence (Q14164 1-716): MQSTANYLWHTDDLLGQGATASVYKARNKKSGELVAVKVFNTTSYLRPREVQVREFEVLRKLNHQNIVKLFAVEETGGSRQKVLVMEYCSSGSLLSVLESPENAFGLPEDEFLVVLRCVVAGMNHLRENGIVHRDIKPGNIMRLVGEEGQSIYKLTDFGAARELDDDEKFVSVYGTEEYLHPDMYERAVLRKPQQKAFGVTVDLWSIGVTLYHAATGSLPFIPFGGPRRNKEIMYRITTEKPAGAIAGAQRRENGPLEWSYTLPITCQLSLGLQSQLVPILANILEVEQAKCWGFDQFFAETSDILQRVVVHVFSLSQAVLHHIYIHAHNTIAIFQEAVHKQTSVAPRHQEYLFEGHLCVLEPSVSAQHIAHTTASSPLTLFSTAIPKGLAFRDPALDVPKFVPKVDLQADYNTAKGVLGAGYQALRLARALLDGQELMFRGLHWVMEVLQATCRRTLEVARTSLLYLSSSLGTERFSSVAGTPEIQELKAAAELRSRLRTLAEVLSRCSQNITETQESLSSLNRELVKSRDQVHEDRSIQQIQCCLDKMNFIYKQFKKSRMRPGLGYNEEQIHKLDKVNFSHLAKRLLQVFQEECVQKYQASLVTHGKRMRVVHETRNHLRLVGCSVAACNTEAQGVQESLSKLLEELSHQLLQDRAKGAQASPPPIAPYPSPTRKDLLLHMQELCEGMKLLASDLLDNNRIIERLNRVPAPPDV
Procedure, shortened: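 His-tagged IKKε from Sf9 cells or GST-tagged IKKε, with myelin basic protein, casein or dephosphorylated casein as substrate and 32 μM ATP (2× Km) plus [γ^33]ATP. "Normal" assay used 0.1 μg/ml enzyme; "sensitized" used 0.015 μg/ml with dephosphorylated casein only. Stopped after 30–45 min with phosphoric acid; P-81 filter counts normalized to DMSO after background subtraction.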

[3] = "sensitized" assay, read-out: IC50, inhibition of the kinase activity of IKKε
[4] = in-vitro IKKε kinase inhibition assays, given as 0.005 μM (5 nM), read-out: IKKε kinase inhibitory activity (IC50 value)
[5] = range given from about 1 μM to about 250 nM

Row | Structure (SMILES) | IC50 [1] [nM] | IC50 [2, 4] [nM] | IC50 [1, 5] [nM] | IC50 [2, 3] [nM]
1 | CNC(=O)c1cncc(Nc2nccc(-c3ccc(OC4CCOCC4)c(C#N)c3)n2)c1 [Example Compound 12, 5-({4-[3-Cyano-4-(tetrahydro-2H-pyran-4-yloxy)phenyl]pyrimidin-2-yl}amino)-N-methylpyridine-3-carboxamide] | 1000 to 5000 | < 5 |  | < 5
2 | COCCNC(=O)c1cncc(Nc2nccc(-c3ccc(OC4CCOCC4)c(C#N)c3)n2)c1 [Example Compound 15, 5-({4-[3-Cyano-4-(tetrahydro-2H-pyran-4-yloxy)phenyl]pyrimidin-2-yl}amino)-N-(2-methoxyethyl)pyridine-3-carboxamide] |  | < 5 | 250 to 1000 | < 5
3 | COC1CN(Cc2cncc(Nc3nccc(-c4ccc(OC5CCOCC5)c(C#N)c4)n3)c2)C1 [Example Compound 23, 5-[2-({5-[(3-Methoxyazetidin-1-yl)methyl]pyridin-3-yl}amino)pyrimidin-4-yl]-2-(tetrahydro-2H-pyran-4-yloxy)benzonitrile] |  | < 5 | 250 to 1000 | < 5
4 | N#Cc1cc(-c2ccnc(Nc3ccc(C(=O)N4CC(O)C4)nc3)n2)ccc1OC1CCOCC1 [Example Compound 32, 5-[2-({6-[(3-Hydroxyazetidin-1-yl)carbonyl]pyridin-3-yl}amino)pyrimidin-4-yl]-2-(tetrahydro-2H-pyran-4-yloxy)benzonitrile] |  | < 5 | 250 to 1000 | < 5
5 | CC(=O)N(C)Cc1ccc(Nc2nccc(-c3ccc(OC4CCOCC4)c(C#N)c3)n2)cn1 [Example Compound 53, N-{[5-({4-[3-Cyano-4-(tetrahydro-2H-pyran-4-yloxy)phenyl]pyrimidin-2-yl}amino)pyridin-2-yl]methyl}-N-methylacetamide] | 100 to 250 | < 5 |  | 
6 | CN(CCS(C)(=O)=O)Cc1ccc(Nc2nccc(-c3ccc(OC4CCOCC4)c(C#N)c3)n2)cn1 [Example Compound 54, 5-(2-{[6-({Methyl[2-(methylsulfonyl)ethyl]amino}methyl)pyridin-3-yl]amino}pyrimidin-4-yl)-2-(tetrahydro-2H-pyran-4-yloxy)benzonitrile] | 100 to 250 | < 5 |  | 
7 | C[C@@H](O)C(=O)N(C)Cc1ccc(Nc2nccc(-c3ccc(OC4CCOCC4)c(C#N)c3)n2)cn1 [Example Compound 57, (2R)—N-{[5-({4-[3-Cyano-4-(tetrahydro-2H-pyran-4-yloxy)phenyl]pyrimidin-2-yl}amino)pyridin-2-yl]methyl}-2-hydroxy-N-methylpropanamide] |  | < 5 | 250 to 1000 | 
8 | CN(Cc1ccc(Nc2nccc(-c3ccc(OC4CCOCC4)c(C#N)c3)n2)cn1)C(=O)CO [Example Compound 58, N-{[5-({4-[3-Cyano-4-(tetrahydro-2H-pyran-4-yloxy)phenyl]pyrimidin-2-yl}amino)pyridin-2-yl]methyl}-2-hydroxy-N-methylacetamide] | 100 to 250 | < 5 |  | 
9 | CN(Cc1ccc(Nc2nccc(-c3ccc(OC4CCOCC4)c(C#N)c3)n2)cn1)C(=O)C1(O)CC1 [Example Compound 59, N-{[5-({4-[3-Cyano-4-(tetrahydro-2H-pyran-4-yloxy)phenyl]pyrimidin-2-yl}amino)pyridin-2-yl]methyl}-1-hydroxy-N-methylcyclopropanecarboxamide] |  | < 5 | 250 to 1000 | 
10 | CN(Cc1ccc(Nc2nccc(-c3ccc(OC4CCOCC4)c(C#N)c3)n2)cn1)C(=O)C1(N)CC1 [Example Compound 60, 1-Amino-N-{[5-({4-[3-cyano-4-(tetrahydro-2H-pyran-4-yloxy)phenyl]pyrimidin-2-yl}amino)pyridin-2-yl]methyl}-N-methylcyclopropanecarboxamide] | 100 to 250 | < 5 |  | 

Now from value to compound, other results behind:

Row | IC50 [1] [nM] | IC50 [2, 4] [nM] | IC50 [1, 5] [nM] | Structure (SMILES) | IC50 [2, 3] [nM]
11 | 100 to 250 | < 5 |  | Cc1ccc(Nc2nccc(-c3ccc(OC4CCOCC4)c(C#N)c3)n2)cn1 [Example Compound 7, 5 5-{2-[(6-Methylpyridin-3-yl)amino]pyrimidin-4-yl}-2-(tetrahydro-2H-pyran-4-yloxy)benzonitrile] | < 5
12 |  | < 5 | 250 to 1000 | CCOc1ccc(Nc2nccc(-c3ccc(OC4CCOCC4)c(C#N)c3)n2)cn1 [Example Compound 8, 5-{2-[(6-Ethoxypyridin-3-yl)amino]pyrimidin-4-yl}-2-(tetrahydro-2H-pyran-4-yloxy)benzonitrile] | < 5
13 | 100 to 250 | < 5 |  | N#Cc1cc(-c2ccnc(Nc3ccc(C(=O)N4CCCC4)nc3)n2)ccc1OC1CCOCC1 [Example Compound 29, 5-(2-{[6-(Pyrrolidin-1-ylcarbonyl)pyridin-3-yl]amino}pyrimidin-4-yl)-2-(tetrahydro-2H-pyran-4-yloxy)benzonitrile] | < 5
14 |  | < 5 | 250 to 1000 | N#Cc1cc(-c2ccnc(Nc3ccncc3)n2)ccc1OC1CCOCC1 [Example Compound 34, 5-[2-(Pyridin-4-ylamino)pyrimidin-4-yl]-2-(tetrahydro-2H-pyran-4-yloxy)benzonitrile] | < 5
15 | 100 to 250 | < 5 |  | N#Cc1cc(-c2ccnc(Nc3ccnc(N4CCC[C@@H]4CO)c3)n2)ccc1OC1CCOCC1 [Example Compound 37, 5-[2-({2-[(2R)-2-(Hydroxymethyl)pyrrolidin-1-yl]pyridin-4-yl}amino)pyrimidin-4-yl]-2-(tetrahydro-2H-pyran-4-yloxy)benzonitrile] | 
16 | 100 to 250 | < 5 |  | N#Cc1cc(-c2ccnc(Nc3ccnc(N4CC(O)C4)c3)n2)ccc1OC1CCOCC1 [Example Compound 41, 5-(2-{[2-(3-Hydroxyazetidin-1-yl)pyridin-4-yl]amino}pyrimidin-4-yl)-2-(tetrahydro-2H-pyran-4-yloxy)benzonitrile] | < 5
17 | < 100 | < 5 |  | N#Cc1cc(-c2ccnc(Nc3ccnc(N4CCN(CCO)CC4)c3)n2)ccc1OC1CCOCC1 [Example Compound 42, 5-[2-({2-[4-(2-Hydroxyethyl)piperazin-1-yl]pyridin-4-yl}amino)pyrimidin-4-yl]-2-(tetrahydro-2H-pyran-4-yloxy)benzonitrile] | < 5
18 | < 100 | < 5 |  | COC1CN(c2cc(Nc3nccc(-c4ccc(OC5CCOCC5)c(C#N)c4)n3)ccn2)C1 [Example Compound 43, 5-(2-{[2-(3-Methoxyazetidin-1-yl)pyridin-4-yl]amino}pyrimidin-4-yl)-2-(tetrahydro-2H-pyran-4-yloxy)benzonitrile] | < 5
19 | < 100 | < 5 |  | N#Cc1cc(-c2ccnc(Nc3ccnc(N4CCOCC4)c3)n2)ccc1OC1CCOCC1 [Example Compound 44, 5-(2-{[2-(Morpholin-4-yl)pyridin-4-yl]amino}pyrimidin-4-yl)-2-(tetrahydro-2H-pyran-4-yloxy)benzonitrile] | < 5
20 | 100 to 250 | < 5 |  | COCCOC1CN(c2cc(Nc3nccc(-c4ccc(OC5CCOCC5)c(C#N)c4)n3)ccn2)C1 [Example Compound 45, 5-[2-({2-[3-(2-Methoxyethoxy)azetidin-1-yl]pyridin-4-yl}amino)pyrimidin-4-yl]-2-(tetrahydro-2H-pyran-4-yloxy)benzonitrile] | < 5
21 |  | < 5 | 250 to 1000 | CNCc1ccc(Nc2nccc(-c3ccc(OC4CCOCC4)c(C#N)c3)n2)cn1 [Example Compound 52, 5-[2-({6-[(Methylamino)methyl]pyridin-3-yl}amino)pyrimidin-4-yl]-2-(tetrahydro-2H-pyran-4-yloxy)benzonitrile] | < 5
